Test results taken from US8568969B2, “RBP4 in insulin sensitivity/resistance, diabetes, and obesity” (Beth Israel Deaconess Medical Center, Inc., priority 2003, dated 2013).

Assays:
[1] = Food intake, body weight and obesity on high fat diet; format: in vivo, mouse; conditions: 0.04% fenretinide in high fat diet, FVB mice
Protocol: (§1) To determine the effect of RBP4 independently of transgenic manipulation, adult FVB mice were treated with fenretinide (4-hydroxyphenyl retinamide, 4-HPR), a synthetic retinoid originally designed for cancer therapy. […] Three-week old male FVB mice received chow diet, high fat diet or high fat diet supplemented with 0.04% fenretinide. Fenretinide gel capsules were emptied and added directly to the fat soluble vitamin component of the Harlan-Teklad laboratory high fat diet in at the time of diet preparation. Light exposure was minimized during fenretinide high fat diet preparation. Fenretinide high fat diet was stored in the dark at 4° C. and were placed in mouse cages at 2-3 day intervals. […] Thus, both genetic and pharmacological interventions that decrease RBP4 levels improve insulin sensitivity even in obesity.

RBP4 with TTR = RBP4 with TTR (Homo sapiens, UniProt P02753); conditions: cited from earlier work
[2] = test system: obese mice on a high fat diet (HFD); assay: Insulin tolerance test (ITT) in mice on high fat diet; format: in vivo, mouse; conditions: HFD with 0.04% fenretinide, 15 weeks of treatment, 1.1 U/kg insulin
Protocol: (§2) Plasma glucose was measured by glucometer (One Touch Ultra, Lifescan). Insulin (crystal chemical), FFAs (Wako) and adipokines (leptin, adiponectin, and resistin) (LINCO research) were measured using commercially available kits. ITT was performed by i.p. injection of recombinant regular human insulin 3-4 hours after food removal. Different insulin doses were used for different mouse lines and ages as described. GTT was performed by i.p. injection of glucose (1 or 2 g D-glucose per kg body weight) after overnight fasting.
as §1

ob/ob mice [3] = assay: IPGTT in ob/ob mice treated with fenretinide; format: in vivo, mouse
Protocol: IPGTT (2 mg/g body weight) was performed on mice (12 weeks old) after 8 weeks of diet/treatment (FIG. 26A). Plasma glucose was measured at the indicated times; the open circles represent ob/+, the closed circles represent ob/ob mice and the open squares represent ob/ob mice treated with fenretinide.
IPGTT (1 mg/g body weight) was performed on mice (42 weeks old). After 38 weeks of diet/treatment (FIG. 26B), plasma glucose was measured at the indicated times; the closed squares are ob/+, the closed circles are ob/+ mice treated with fenretinide; open squares are ob/ob and open circles are ob/ob treated with fenretinide.

serum RBP4 = target: T1, serum RBP4 (Mus musculus, UniProt Q00724); assay: Serum RBP4 levels (immunoblot) in mice fed high fat diet with fenretinide; format: in vivo; conditions: oral, 0.04% fenretinide in high fat diet, FVB mice
T1 construct: from tissue; host or cells: mouse serum (FVB and AG4KO mice)
Protocol: Serum or plasma RBP4 was measured by diluting the serum or plasma 20 times in a standard detergent-containing buffer, separated by 15% SDS-PAGE, and transferred to nitrocellulose (Kim, Y. B., et al. Diabetes 48:310-320 (1999)). Mouse RBP4 and human RBP4 were detected using anti-rat or anti-human (DAKO, Germany) polyclonal antisera, respectively, followed by standard ECL detection.
as §1

ob/ob mice [4] = assay: Long-term mortality of ob/ob mice; format: in vivo, mouse; conditions: 10 months of treatment, compared to untreated controls
Text: The ob/ob mice at 10 months of age were severely obese.

[5] = test system: obese mice on a high fat diet (HFD); assay: Glucose tolerance test (GTT) in mice on high fat diet; format: in vivo, mouse; conditions: HFD with 0.04% fenretinide for 16 weeks, 2 g/kg glucose
Protocol: as §2, §1

RXR isoforms = conditions: in vitro; cited from earlier work

With `CC1=C(/C=C/C(C)=C/C=C/C(C)=C/C(=O)Nc2ccc(O)cc2)C(C)(C)CCC1` [fenretinide, 4-hydroxyphenyl retinamide] the body weight [1] was “did not affect”, the “development of obesity on the high fat diet” value [1] was “did not affect” and the food intake [1] was “did not affect”. For the same compound, the “interaction of RBP4 with TTR” value (RBP4 with TTR) was “disrupts the interaction of RBP4 with TTR”, the “insulin sensitivity (ITT)” value [2] was “improved insulin sensitivity” and the “glucose tolerance (IPGTT)” value (ob/ob mice [3]; ob/ob mice 12 weeks old, 8 weeks of treatment, 2 mg/g body weight) was “greatly improved their glucose tolerance”. The “glucose disposal (IPGTT)” value (ob/ob mice [3]; ob/ob mice 42 weeks old, 38 weeks of treatment, 1 mg/g body weight) was “improve glucosed disposal to nearly that of heterozygous mice”, the “serum RBP4 levels” value (serum RBP4) was “lowered serum RBP4 levels in obese mice on a high fat diet (HFD) to the level of non-obese control mice on a chow diet” and the long term mortality (ob/ob mice [4]) was “reduced by almost half”. For the same compound, the “glucose tolerance (GTT)” value [5] was “normalized glucose tolerance” and the “activation of RXR isoforms” value (RXR isoforms) was “does not activate”.
